Assay [1] has as its target T1, TCF4/beta-catenin (Homo sapiens, UniProt P35222+Q9NQB0). The assay can be described thus: Inhibition of human […]/Tcf4 interaction after 1 hr by fluorescence polarization assay. The class given is protein-complex assay. (Fluorescence polarisation rises when a labelled molecule tumbles more slowly, as on binding a larger partner.)
The species named for assay [2] is Homo sapiens. The assay can be described thus: Selectivity ratio of Ki for human […]/APC-R3 interaction to Ki for human […]/Tcf4 interaction by fluorescence polarization assay.
Assay [3] concerns the target Catenin beta-1/Adenomatous polyposis coli protein (Homo sapiens). The assay can be described thus: Inhibition of human beta-catenin/APC-R3 interaction after 1 hr by fluorescence polarization assay.
Assay [4] has as its target Catenin beta-1/Cadherin-1 (Homo sapiens). The assay can be described thus: Inhibition of human beta-catenin/E-cadherin interaction after 1 hr by fluorescence polarization assay.
For assay [5] the target is unchanged. Nature of the assay: Inhibition of human beta-catenin/E-cadherin interaction after 1 hr by alphascreen assay. (Alpha assays give light when donor and acceptor beads are brought close together.)
Assay [6] is filed under the species Homo sapiens. Nature of the assay: Selectivity ratio of Ki for human […]/E-cadherin interaction to Ki for human […]/Tcf4 interaction by alphascreen assay.
The species named for assay [7] is Homo sapiens. The assay can be described thus: Selectivity ratio of Ki for human […]/E-cadherin interaction to Ki for human […]/Tcf4 interaction by fluorescence polarization assay.
The target of assay [8] is T1, TCF4/beta-catenin. The assay can be described thus: Inhibition of human beta-catenin/Tcf4 interaction after 1 hr by alphascreen assay.
Assay [9] is filed under the species Homo sapiens. Nature of the assay: Selectivity ratio of Ki for human […]/APC-R3 interaction to Ki for human […]/Tcf4 interaction by alphascreen assay.
The target of assay [10] is Catenin beta-1/Adenomatous polyposis coli protein (Homo sapiens). Nature of the assay: Inhibition of human beta-catenin/APC-R3 interaction after 1 hr by alphascreen assay.

One may read the Ki as the dissociation constant of the complex between target and ligand, obtained from inhibition or displacement. A low value points to higher affinity.

T1 sequence (P35222 whole entry): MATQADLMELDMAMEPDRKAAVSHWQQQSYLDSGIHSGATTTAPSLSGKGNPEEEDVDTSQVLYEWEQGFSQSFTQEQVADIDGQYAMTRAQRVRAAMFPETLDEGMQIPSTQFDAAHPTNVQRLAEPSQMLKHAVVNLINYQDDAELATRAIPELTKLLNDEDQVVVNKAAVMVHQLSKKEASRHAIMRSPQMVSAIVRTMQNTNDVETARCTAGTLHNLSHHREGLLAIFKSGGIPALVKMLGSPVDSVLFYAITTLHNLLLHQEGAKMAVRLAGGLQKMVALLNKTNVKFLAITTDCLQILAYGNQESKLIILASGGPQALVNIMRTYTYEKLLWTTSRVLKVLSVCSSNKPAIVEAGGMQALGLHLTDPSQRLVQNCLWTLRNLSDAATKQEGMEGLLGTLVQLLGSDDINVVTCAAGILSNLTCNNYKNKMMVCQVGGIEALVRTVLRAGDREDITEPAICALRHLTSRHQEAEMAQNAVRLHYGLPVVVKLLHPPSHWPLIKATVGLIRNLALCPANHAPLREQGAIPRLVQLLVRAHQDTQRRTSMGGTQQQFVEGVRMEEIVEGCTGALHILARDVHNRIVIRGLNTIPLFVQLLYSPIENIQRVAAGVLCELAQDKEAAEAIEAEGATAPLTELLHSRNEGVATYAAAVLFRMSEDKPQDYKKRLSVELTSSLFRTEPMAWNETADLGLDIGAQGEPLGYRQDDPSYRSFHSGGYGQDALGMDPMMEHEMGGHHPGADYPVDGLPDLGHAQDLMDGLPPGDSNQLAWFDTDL
T1 sequence (Q9NQB0 whole entry): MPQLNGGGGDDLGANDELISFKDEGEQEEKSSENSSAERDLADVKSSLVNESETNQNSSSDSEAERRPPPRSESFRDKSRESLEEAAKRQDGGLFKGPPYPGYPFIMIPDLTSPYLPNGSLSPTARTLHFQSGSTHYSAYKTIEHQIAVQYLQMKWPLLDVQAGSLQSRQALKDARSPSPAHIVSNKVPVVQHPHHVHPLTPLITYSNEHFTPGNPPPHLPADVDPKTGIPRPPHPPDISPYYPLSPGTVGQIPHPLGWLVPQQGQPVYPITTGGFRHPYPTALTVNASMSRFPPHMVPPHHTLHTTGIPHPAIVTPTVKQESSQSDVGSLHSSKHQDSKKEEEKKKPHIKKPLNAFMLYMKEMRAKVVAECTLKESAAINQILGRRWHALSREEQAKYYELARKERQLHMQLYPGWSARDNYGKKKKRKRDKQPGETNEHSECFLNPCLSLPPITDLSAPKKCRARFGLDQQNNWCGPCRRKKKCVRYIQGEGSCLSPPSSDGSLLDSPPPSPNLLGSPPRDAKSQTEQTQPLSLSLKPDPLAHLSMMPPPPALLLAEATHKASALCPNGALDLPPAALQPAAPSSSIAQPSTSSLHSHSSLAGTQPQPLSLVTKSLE

On to `C=CCN1C(=O)/C(=N\NC(=O)C(=O)Nc2cccc(C(=O)O)c2)c2ccccc21`, for which the Ki is 16 µM on TCF4/beta-catenin [1]; 400 µM in assay [3]; 260 µM in assay [4]; 68 µM in assay [5]; 21 µM on TCF4/beta-catenin [8]; 220 µM in [10]. Besides, the Ratio Ki was determined as 25 in the assay listed under Homo sapiens [2], 3.3 in the assay filed under Homo sapiens [6], 16.3 in the assay listed under Homo sapiens [7] and 10.5 in the assay listed under Homo sapiens [9].

`COc1c(C[C@@H](C)OC(=O)Oc2ccc(O)cc2)c2c3c(C[C@@H](C)OC(=O)c4ccccc4)c(OC)c(=O)c4c(O)cc(OC)c(c5c(OC)cc(O)c(c1=O)c52)c43` [CALPHOSTIN C]: the inhibitory constant (Ki) at TCF4/beta-catenin [1] is 18 µM.

As to `COc1cccc(/C=C2/SC(=S)N(CCC(=O)O)C2=O)c1OC`, the figures for the Ki (in assay [5]; on TCF4/beta-catenin [8]; in assay [10]) were 140 µM, 29 µM and 110 µM, respectively. Also, the Ratio Ki in the assay listed under Homo sapiens [6] turned out to be 4.8; in the assay filed under Homo sapiens [9], 3.8.
